# Publication PMC11078216, “Discovery of potent and selective activity-based probes (ABPs) for the deubiquitinating enzyme USP30” (RSC Chemical Biology, 2024)
# Assays:
# Test in all cases: ABPP chemical proteomics (LC-MS/MS) in HEK293T cells
# Type in all cases: cell-based
# SRP68 = target: T1, SRP68 (Homo sapiens, UniProt Q9UHB9)
# T1 construct: endogenous in cells; host or cells: HEK293T
# Description: (§1) To explore the selectivity of IMP-2587 and IMP-2586 across the whole proteome, we performed quantitative activity-based protein profiling (ABPP) in HEK293T cells following treatment with IMP-2587 or IMP-2586 (Fig. 3a). After ABP incubation, cells were lysed, and probe-labelled proteins were ligated to biotinylated capture reagents.[27] […] USP30 was outcompeted by corresponding parent inhibitors for each ABP (Fig. 5b and d and Tables S3 and S5, ESI ^†), confirming the high potency and rapid engagement of IMP-2587 and IMP-2586 in cells. […] DESI1 and DESI2 are small ubiquitin-related modifier (SUMO) proteases,[3,29–32] and IMP-2587 and IMP-2586 may offer a starting point for future development of DESI ABPs. […]
# (§2) d) Live cell probe incubation, lysate click chemistry and precipitation 6-well HEK293T cells were incubated with media containing compounds ABP 2 and ABP 4 at indicated concentrations for 1 h at 37 °C. The cells were washed with PBS and lysed with lysis buffer (50 μL (1% (v/v) Triton X-100, 0.1% (w/v) sodium dodecyl sulfate (SDS), EDTA-free complete protease inhibitor cocktail (1×, Roche) in PBS on ice for 10 min. The lysates were scraped and transferred to corresponding Lo-Bind Eppendorfs. Each lysate was sonicated for 1 minute, and the samples centrifuges at 5,000 x g at 4 °C for 5 minutes to pellet insoluble cellular debris. The supernatant was collected, and protein concentration was determined using the DC Protein Assay (Bio-Rad) as per manufacturer’s instructions, and normalised to lowest concentrated sample (e.g. 1 mg/mL, using lysis buffer). The following “click mixture” was prepared separately, preparing 6 μL for every 100 μL of […]
# (§3) Capture reagent (AzRB/AzT for ABP 2, YnT/YnB for ABP 4 10 mM in DMSO, 1 vol; final concentration […]
# (§4) CuSO4 (50 mM in water, 2 vol; final concentration in reaction 1 mM)
# (§5) TCEP (50 mM in water, 2 vol; final concentration in reaction 1 mM)
# (§6) TBTA (10 mM in DMSO, 1 vol; final concentration in reaction 100 µM)
# (§7) The click mixture was vortexed and incubated at room temperature for 2 min before 6 μL of the mixture was added to every 100 μL of lysate. The reaction mixtures were shaken at room temperature for 1 h before being quenched with EDTA (500 mM in H2O) to a final concentration of 10 mM.
# (§8) Proteins were precipitated by adding H2O (1 vol), MeOH (2 vol) and CHCl3 (0.5 vol), vortexing briefly then centrifuging at 17,000 × g for 5 min. The top H2O/MeOH layer was discarded and the middle layer of protein pellet and lower CHCl3 layer retained. The suspension was washed with MeOH (300 μL), and sonicated to break up the pellet. The proteins were pelleted by centrifugation at 10,000–17000 × g for 5–10 min or until a compact pellet was formed. The protein pellet was washed once more with MeOH (1 mL). The pellet was resuspended by sonicating and completely dissolving in 1% (w/v) SDS in PBS (to 5 mg/mL protein) before being made up to 1 mg/mL protein with PBS.
# (§9) The lysate samples (10-20 μg) were mixed with 4× Laemmli sample loading buffer (250 mM Tris -HCl pH 6.8, 30% (v/v) glycerol, 10% (w/v) SDS, 0.05% (w/v) bromophenol blue) supplemented with 20% v/v β-mercaptoethanol (BME) and boiled for 10 min at 95 °C. The resulting protein samples were separated according to the protocol in section 3.2.c. Gel were imaged on a Typhoon imager (GE Healthcare; λEx 532 nm, λEm 575 nm for TAMRA. For protein loading quantification, gels were stained with Coomassie blue staining solution overnight, rinsed with water and imaged on an ImageQuant™ LAS 4000 imager (GE Healthcare). f) Neutravidin biotin enrichment (Affinity pull-down)
# (§10) Click chemistry and precipitation steps were carried out as described in section 3.2.d, on at least 400ug of protein per sample. The pellet was resuspended by sonicating and completely dissolving in 1% (w/v) SDS in HEPES 50 mM pH 8.0, before being made up to 1 mg/mL protein with HEPES 50 mM pH 8.0 to […]
# (§11) achieve a final concentration of 0.2% SDS. 20uL of each samples was collected as TL (Total lysate) […]
# (§12) samples. […]
# ALDH9A1 = target: T2, ALDH9A1 (Homo sapiens, UniProt P49189)
# T2 construct: endogenous in cells; host or cells: HEK293T
# Description: as §1, §2, §3, §4, §5, §6, §7, §8, §9, §10, §11, §12
# NIT1 = target: T3, NIT1 (Homo sapiens, UniProt Q86X76)
# T3 construct: endogenous in cells; host or cells: HEK293T
# Description: as §1, §2, §3, §4, §5, §6, §7, §8, §9, §10, §11, §12
# FAAH2 = target: T4, FAAH2 (Homo sapiens, UniProt Q6GMR7)
# T4 construct: endogenous in cells; host or cells: HEK293T
# Description: as §1, §2, §3, §4, §5, §6, §7, §8, §9, §10, §11, §12
# ABHD6 = target: T5, ABHD6 (Homo sapiens, UniProt Q9BV23)
# T5 construct: endogenous in cells; host or cells: HEK293T
# Description: as §1, §2, §3, §4, §5, §6, §7, §8, §9, §10, §11, §12
# ALDH3A2 = target: T6, ALDH3A2 (Homo sapiens, UniProt P51648)
# T6 construct: endogenous in cells; host or cells: HEK293T
# Description: as §1, §2, §3, §4, §5, §6, §7, §8, §9, §10, §11, §12
# FAAH = target: T7, FAAH (Homo sapiens, UniProt O00519)
# T7 construct: endogenous in cells; host or cells: HEK293T
# Description: as §1, §2, §3, §4, §5, §6, §7, §8, §9, §10, §11, §12
# MRPS2 = target: T8, MRPS2 (Homo sapiens, UniProt Q9Y399)
# T8 construct: endogenous in cells; host or cells: HEK293T
# Description: as §1, §2, §3, §4, §5, §6, §7, §8, §9, §10, §11, §12
# [1] = IMP-2587 labelling vs DMSO, 30 nM, 10 min, HEK293T (Table S2, Fig.5a)
# [2] = compound 1 out-competition with IMP-2587 labelling, HEK293T (Table S3, Fig.5b)
# T5 sequence (Q9BV23 whole entry): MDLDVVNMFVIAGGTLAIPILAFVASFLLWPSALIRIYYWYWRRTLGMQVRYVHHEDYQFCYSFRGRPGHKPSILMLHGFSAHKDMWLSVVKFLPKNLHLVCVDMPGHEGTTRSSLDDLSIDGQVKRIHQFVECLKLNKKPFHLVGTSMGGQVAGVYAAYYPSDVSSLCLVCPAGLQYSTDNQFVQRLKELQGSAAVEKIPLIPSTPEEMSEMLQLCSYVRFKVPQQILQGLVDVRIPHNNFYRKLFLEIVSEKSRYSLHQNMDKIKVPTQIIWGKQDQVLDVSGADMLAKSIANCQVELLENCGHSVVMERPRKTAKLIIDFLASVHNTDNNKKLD
# T4 sequence (Q6GMR7 whole entry): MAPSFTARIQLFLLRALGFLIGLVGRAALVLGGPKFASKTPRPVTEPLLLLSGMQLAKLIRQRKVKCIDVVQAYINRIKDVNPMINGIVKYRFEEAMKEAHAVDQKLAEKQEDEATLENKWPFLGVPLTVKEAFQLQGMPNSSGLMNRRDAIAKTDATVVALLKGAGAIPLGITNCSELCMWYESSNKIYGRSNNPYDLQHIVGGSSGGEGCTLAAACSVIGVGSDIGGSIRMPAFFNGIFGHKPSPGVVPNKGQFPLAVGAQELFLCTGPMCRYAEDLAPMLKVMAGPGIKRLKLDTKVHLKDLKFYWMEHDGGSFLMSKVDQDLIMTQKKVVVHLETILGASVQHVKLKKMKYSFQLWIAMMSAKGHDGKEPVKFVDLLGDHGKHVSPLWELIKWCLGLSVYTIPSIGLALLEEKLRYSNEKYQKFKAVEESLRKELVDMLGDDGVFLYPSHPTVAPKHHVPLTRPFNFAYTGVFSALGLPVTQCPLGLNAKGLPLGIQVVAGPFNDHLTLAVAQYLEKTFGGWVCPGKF
# T7 sequence (O00519 whole entry): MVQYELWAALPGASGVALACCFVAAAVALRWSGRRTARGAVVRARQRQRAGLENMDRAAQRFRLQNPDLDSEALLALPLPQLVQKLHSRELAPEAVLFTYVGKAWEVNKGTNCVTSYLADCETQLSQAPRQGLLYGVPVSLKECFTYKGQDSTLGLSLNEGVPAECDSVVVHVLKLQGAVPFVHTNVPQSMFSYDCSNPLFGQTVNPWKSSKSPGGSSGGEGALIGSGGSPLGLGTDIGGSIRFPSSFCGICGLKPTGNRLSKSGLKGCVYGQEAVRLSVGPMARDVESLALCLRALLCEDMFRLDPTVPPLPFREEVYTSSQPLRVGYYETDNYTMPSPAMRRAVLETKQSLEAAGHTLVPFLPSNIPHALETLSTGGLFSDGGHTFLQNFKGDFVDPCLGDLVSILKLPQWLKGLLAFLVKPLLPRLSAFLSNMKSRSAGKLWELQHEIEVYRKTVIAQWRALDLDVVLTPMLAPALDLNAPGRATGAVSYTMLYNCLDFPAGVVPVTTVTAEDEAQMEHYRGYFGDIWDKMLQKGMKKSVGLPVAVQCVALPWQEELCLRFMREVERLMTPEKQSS
# T6 sequence (P51648 whole entry): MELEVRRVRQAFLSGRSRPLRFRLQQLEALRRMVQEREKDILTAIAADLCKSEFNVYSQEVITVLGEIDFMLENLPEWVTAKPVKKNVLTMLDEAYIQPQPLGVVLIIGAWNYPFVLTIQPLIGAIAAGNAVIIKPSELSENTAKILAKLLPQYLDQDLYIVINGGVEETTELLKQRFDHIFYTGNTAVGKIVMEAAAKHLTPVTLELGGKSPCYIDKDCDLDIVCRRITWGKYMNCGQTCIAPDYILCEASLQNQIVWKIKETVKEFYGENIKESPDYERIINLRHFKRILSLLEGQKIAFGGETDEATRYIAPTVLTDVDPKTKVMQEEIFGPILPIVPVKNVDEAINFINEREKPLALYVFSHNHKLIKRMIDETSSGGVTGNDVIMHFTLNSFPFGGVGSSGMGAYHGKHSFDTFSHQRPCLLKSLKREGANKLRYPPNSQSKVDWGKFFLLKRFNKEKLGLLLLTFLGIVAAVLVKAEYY
# T1 sequence (Q9UHB9 whole entry): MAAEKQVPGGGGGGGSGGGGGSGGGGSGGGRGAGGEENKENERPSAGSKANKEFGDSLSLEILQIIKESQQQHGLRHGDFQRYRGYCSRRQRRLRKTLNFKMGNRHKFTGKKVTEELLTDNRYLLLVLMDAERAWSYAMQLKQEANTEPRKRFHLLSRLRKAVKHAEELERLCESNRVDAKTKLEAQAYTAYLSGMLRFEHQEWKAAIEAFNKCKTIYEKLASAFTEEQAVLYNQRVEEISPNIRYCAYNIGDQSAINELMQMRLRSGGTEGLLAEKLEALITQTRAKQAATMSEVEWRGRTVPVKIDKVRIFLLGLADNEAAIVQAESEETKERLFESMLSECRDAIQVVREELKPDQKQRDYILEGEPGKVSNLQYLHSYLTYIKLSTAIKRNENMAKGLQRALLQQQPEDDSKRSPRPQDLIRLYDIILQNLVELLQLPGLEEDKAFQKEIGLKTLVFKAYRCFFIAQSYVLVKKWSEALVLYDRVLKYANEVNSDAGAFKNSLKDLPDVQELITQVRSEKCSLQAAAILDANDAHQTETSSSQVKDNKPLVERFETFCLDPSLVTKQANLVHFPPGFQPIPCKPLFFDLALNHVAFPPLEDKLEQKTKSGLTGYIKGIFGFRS
# T2 sequence (P49189 whole entry): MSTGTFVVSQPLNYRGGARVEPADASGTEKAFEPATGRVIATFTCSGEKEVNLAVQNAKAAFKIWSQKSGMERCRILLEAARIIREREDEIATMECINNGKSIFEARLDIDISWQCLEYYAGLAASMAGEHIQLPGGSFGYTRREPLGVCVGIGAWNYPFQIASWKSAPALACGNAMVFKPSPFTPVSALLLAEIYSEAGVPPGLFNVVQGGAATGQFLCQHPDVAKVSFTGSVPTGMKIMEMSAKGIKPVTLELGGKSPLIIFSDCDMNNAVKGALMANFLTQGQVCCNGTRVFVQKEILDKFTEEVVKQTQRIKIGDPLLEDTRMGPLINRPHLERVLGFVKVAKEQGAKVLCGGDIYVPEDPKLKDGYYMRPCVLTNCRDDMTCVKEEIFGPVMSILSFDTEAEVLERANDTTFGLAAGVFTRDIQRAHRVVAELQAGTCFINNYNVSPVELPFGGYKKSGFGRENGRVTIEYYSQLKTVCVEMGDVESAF
# T3 sequence (Q86X76 14-327): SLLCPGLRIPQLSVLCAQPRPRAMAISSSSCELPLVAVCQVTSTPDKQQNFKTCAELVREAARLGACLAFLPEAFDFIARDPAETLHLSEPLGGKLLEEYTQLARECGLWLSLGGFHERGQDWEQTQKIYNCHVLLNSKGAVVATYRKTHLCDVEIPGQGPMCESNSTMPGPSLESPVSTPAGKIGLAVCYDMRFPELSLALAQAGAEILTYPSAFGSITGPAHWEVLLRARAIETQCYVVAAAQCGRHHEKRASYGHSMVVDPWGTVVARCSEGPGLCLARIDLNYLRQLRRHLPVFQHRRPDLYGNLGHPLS
smiles,measurement,setting,value
N#CN1CC[C@@H](NC(=O)c2cc(-c3ccccc3Oc3ccc(N=[N+]=[N-])cc3)n[nH]2)C1 [IMP-2586],Difference (log2 fold change of enrichment),"SRP68; IMP-2586 labelling vs DMSO, 30 nM, 10 min, HEK293T (Table S4, Fig.5c)",0.45
C#Cc1cccc(-c2cc(NC(=O)CC3CCN(C#N)C3)on2)c1 (stereo not shown) [IMP-2587],Difference (log2 fold change of enrichment),ALDH9A1; [1],1.70
same,Difference (log2 fold change of enrichment),NIT1; [1],2.01
same,Difference (log2 fold change of enrichment),FAAH2; [1],4.10
same,Difference (log2 fold change of enrichment),ABHD6; [1],2.06
same,Difference (log2 fold change of enrichment),ALDH3A2; [1],2.95
same,Difference (log2 fold change of enrichment),FAAH; [1],3.97
same,Difference (log2 fold change of enrichment),MRPS2; [1],2.58
"N#CN1CC[C@H](CC(=O)Nc2cc(-c3cccc(Cl)c3)no2)C1 [compound 1, reference compound]",Difference (log2 fold change of enrichment),ALDH9A1; [2],-1.60
same,Difference (log2 fold change of enrichment),NIT1; [2],-1.86
same,Difference (log2 fold change of enrichment),FAAH2; [2],-3.82
same,Difference (log2 fold change of enrichment),ABHD6; [2],-1.95
same,Difference (log2 fold change of enrichment),ALDH3A2; [2],-1.88
same,Difference (log2 fold change of enrichment),FAAH; [2],-3.46
same,Difference (log2 fold change of enrichment),MRPS2; [2],-2.58
"N#CN1CC[C@@H](NC(=O)c2cc(-c3ccccc3Oc3ccccc3)n[nH]2)C1 [compound 3, reference compound]",Difference (log2 fold change of enrichment),"SRP68; compound 3 out-competition with IMP-2586 labelling, HEK293T (Table S5, Fig.5d)",-0.40
